In publication PMC8335727 (Inorganic Chemistry, 2021):

Key:
[1] = log D7.4 by shake-flask method, n-octanol/buffered aqueous solution; assay type: physicochemical; details: partitioning, n-octanol/water, pH 7.4, read-out: log D7.4 (proligand)
Protocol: Besides pKa values, lipophilicity is also an important pharmacological property of a drug, as it strongly influences the ability of the compound to pass through biological membranes. Therefore, distribution coefficients (log D7.4) were determined using the shake-flask method in an n-octanol-buffered aqueous solution at pH 7.4 (Table 1). The log D7.4 values indicate the moderate lipophilic character of the proligands. The substitution at the end nitrogen atom of the thosemicarbazide moiety and the presence of a methyl group at the Schiff base bond induce a somewhat higher lipophilicity. The presence of the phenolic moiety undoubtedly increases the log D7.4 values compared to those of FTSC (+0.73),[67]
The time-dependence of UV–vis absorption spectra was monitored for proligands HL2 at pH 7.4, 1.5 and 10.0 in 30% (v/v) DMSO/H2O, and for HL1 and HL3 at pH 7.4.
The redox reaction of the copper(II) complexes (25 µM) with GSH (1250 µM) was studied at 7.40 (50 mM HEPES buffer with 0.1 M KCl) and at 25.0 ± 0.1 °C on Hewlett Packard 8452A diode array spectrophotometer using a special, tightly closed tandem cuvette (Hellma Tandem Cell, 238-QS) as described previously.6,7 Calculation of the observed rate constants (kobs) of the redox reaction was performed by using a reported approach.6,7
Distribution coefficients (D7.4) values were determined by the traditional shake-flask method in n-octanol/buffered aqueous solution at pH 7.40 (50 mM HEPES buffer at 25.0 ± 0.2 °C as described previously in our previous work.8
2.4. Spectroelectrochemical studies
Cyclic voltammetry experiments with 0.5 mM solutions of Cu(II) complexes and corresponding ligands in 0.1 M n-Bu4NPF6 in both DMSO and methanol were performed under argon atmosphere using a three-electrode arrangement with glassy carbon 1 mm disc working electrode (from Ionode, Australia), platinum wire as counter electrode, and silver wire as pseudo -reference electrode. As a supporting e lectrolyte, 0.1 M n-Bu4NPF6 was used in DMSO (SeccoSolv max.
0.025% H2O, Merck) and 0.1 M LiClO4 (≥95.0%, Merck) in methanol. […]

Colo205 = experiment: MTT cytotoxicity assay, Colo205; assay type: cell-based; details: Homo sapiens, COLO 205, 72 h of exposure
Protocol: (§1) The in vitro cytotoxicity of the TSCs HL^1–HL^3, copper(II) complexes Cu(HL^1)Cl2, [Cu(L^2)Cl], and Cu(HL^3)Cl2, and oxidized TSCs HL^1a′, HL^1a″, and HL^2c′·CH3COOH was tested in the doxorubicin-sensitive Colo205 and the multidrug-resistant Colo320 human colonic adenocarcinoma cell lines as well as in normal human embryonal lung fibroblast cells (MRC-5) by the colorimetric MTT assay. […]
(§2) 2.5. In vitro cell studies
(§3) 2.5.1. Cell lines and culture conditions
(§4) All cell culture reagents were obtained from Sigma-Aldrich and plastic ware from Sarstedt
(§5) (Germany). Doxorubicin-sensitive human colonic Colo 205 and multidrug resistant
(§6) Colo 320/MDR-LRP adenocarcinoma cell lines were purchased from LGC Promochem,
(§7) Teddington, UK. The cells were cultured in Roswell Park Memorial Institute (RPMI) 1640
(§8) medium supplemented with 10% heat-inactivated fetal bovine serum, 2 mM L-glutamine, 1 mM
(§9) Na-pyruvate and 100 mM Hepes. The cell lines were incubated at 37°C, in a 5% CO2, 95% air
(§10) MRC-5 human embryonal lung fibroblast cell line (ATCC CCL-171) was purchased from LGC
(§11) Promochem, Teddington, UK. The cell line was cultured in Eagle’s Minimal Essential Medi um
(§12) (EMEM, containing 4.5 g/L glucose) supplemented with a non-essential amino acid mixture, a
(§13) selection of vitamins and 10% heat-inactivated fetal bovine serum. The cells were incubated at
(§14) 37°C, in a 5% CO2, 95% air atmosphere. All cell lines were detached with Trypsin-Versene
(§15) (EDTA) solution for 5 min at 37 °C.
(§16) The tested compounds were dissolved in DMSO using 10 mM concentration. Then stock solutions
(§17) were diluted in complete culture medium in 96-well microtiter plates, and two-fold serial dilutions
(§18) of compounds were prepared in 100 µL of RPMI 1640, horizontally. The semi-adherent colonic
(§19) adenocarcinoma cells were treated with Trypsin -Versene (EDTA) solution. They were adjusted to
(§20) a density of 1×10^4 cells in 100 µL of RPMI 1640 medium, and were added to each well, with the
(§21) exception of the medium control wells. The final volume of the wells containing compounds and
(§22) cells was 200 µL. The culture were incubated at 37 °C for 72 h; at the end of the incubation period,
(§23) 20 µL of MTT solution (from a stock solution of 5 mg/mL) were added to each well. After
(§24) incubation at 37 °C for 4 h, 100 µL of SDS solution (10% in 0.01 M HCI) were added to each well
(§25) and the plates were further incubated at 37 °C overnight. The cell growth was determined using
(§26) both methods by measuring the optical density (OD) at 450 nm (ref. 620 nm) with a Multiscan EX
(§27) ELISA reader. Inhibition of the cell growth (expressed as IC 50: inhibitory concentration that
(§28) reduces by 50% the growth of the cells exposed to the tested compounds) was determined from
(§29) the sigmoid curve where 100 – ((ODsample ‒ ODmedium control)/(ODcell control ‒ ODmedium control)) × 100
(§30) values were plotted against the logarithm of compound concentrations. […]
(§31) 0.76 tyrosyl radical/polypeptide. Samples containing 20 µM mR2 in 50 mM HEPES buffer, pH
(§32) 7.50/100 mM NaCl, and 20 µM respective compound in 1% (v/v) DMSO/H2O, and 2 mM

Colo320 = experiment: MTT cytotoxicity assay, Colo320; assay type: cell-based; details: Homo sapiens, COLO 320, 72 h of exposure
Protocol: as §1, §2, §3, §4, §5, §6, §7, §8, §9, §10, §11, §12, §13, §14, §15, §16, §17, §18, §19, §20, §21, §22, §23, §24, §25, §26, §27, §28, §29, §30, §31, §32

MRC-5 = experiment: MTT cytotoxicity assay, MRC-5; assay type: cell-based; details: Homo sapiens, MRC5, 72 h of exposure
Protocol: as §2, §3
All cell culture reagents were obtained from Sigma-Aldrich and plastic ware from Sarstedt […]
as §10, §11, §12, §13, §14, §15, §16, §17, §18, §19, §20, §21, §22, §23, §24, §25, §26, §27, §28, §29, §30

Structure (SMILES) | logD [1] | IC50 (Colo205) | IC50 (Colo320) | IC50 (MRC-5)
Cc1cc(NC(=S)NN=Cc2ccccn2)cc(C)c1O [HL^1, 2-Formylpyridine 4-(4-hydroxy-3,5-dimethylphenyl)thiosemicarbazone] | 1.3 | > 100 µM | 6.32 ± 0.49 µM | > 100 µM
CC(=NNC(=S)Nc1cc(C)c(O)c(C)c1)c1ccccn1 [HL^2, 2-Acetylpyridine 4-(4-hydroxy-3,5-dimethylphenyl)thiosemicarbazone] | 2.1 | > 100 µM | > 100 µM | > 100 µM
Cc1cc(NC(=S)NN=Cc2ncccc2N)cc(C)c1O [HL^3, 3-Amino-2-formylpyridine 4-(4-hydroxy-3,5-dimethylphenyl)thiosemicarbazone] | 1.67 | 48.2 ± 6.8 µM | > 100 µM | > 100 µM
